These compounds were tested against α-melanocyte-stimulating hormone receptor (hMC4R) (Homo sapiens (Human), UniProt P32245) (assay: In vitro binding affinity assay using hMC4R (radioligand competition binding, [125I]-(Nle4, D-Phe7)-α-MSH)). Details: geometric mean, read-out: Ki (nM) geometric.
Method: The binding affinity of test compounds at the α-melanocyte-stimulating hormone receptor (hMC4R) was assessed using a radioligand competition binding assay. Recombinant Chinese hamster ovaries (CHO) cells stably expressing hMC4R (PerkinElmer #ES-191-C) were used for competitive binding. hMC4R membranes were grown in Dulbecco's Modified Essential Medium and Ham's F-12 Medium (DMEM/F12), 10% heat inactivated fetal bovine serum (FBS), 0.4 mg/mL Geneticin and 2 mM L-glutamine. Cell membranes were bulked and frozen until the assay was performed.
Compounds were solubilized in 100% dimethyl sulfoxide (DMSO) to a concentration of 30 mM. A 10-point intermediate dilution series using half log dilutions was created in 100% DMSO with a top concentration of 0.03 mM. The serially diluted compounds were spotted as 1 μL/well, in 96-well Costar 3363 plates. The final compound range in the assay was 300 nM to 0.01 nM with a final DMSO concentration of 1%. Control wells, containing 1 μL of 2 mM ([…]) alpha-melanocyte stimulating hormone (α-MSH-Tocris #2584) was added to the non-specific binding wells and 1 μL 100% DMSO for the total binding control wells. […] The exact concentration of radioligand used for each experiment was determined by liquid scintillation counting and adjusted if necessary.
Frozen hMC4R cell membranes were thawed and Dounce homogenized. Homogenates were resuspended in assay buffer to a concentration of 2 μg per well. […] The plates were incubated for 2 hours at room temperature. Assay samples were then rapidly filtered through Unifilter-96 GF/B PEI coated filter plates using a filter plate harvester (PerkinElmer) and rinsed with ice-cold wash buffer [25 mM (4-(2-hydroxyethyl)-1-piperazineethanesulfonic acid (HEPES), 1 mM MgCl2, 2.5 mM CaCl2, and 500 mM NaCl]. Filter plates were dried overnight at room temperature. Plates were then bottom-sealed prior to the addition of 50 μL/well Ultima Gold XR scintillation fluid (PerkinElmer 6013111). Plates were then top-sealed, incubated for 60 minutes at room temperature and then the amount of radioactivity present was determined by liquid scintillation counting on a Microbeta Trilux (PerkinElmer #2450-0060).
The raw data (expressed as counts per minute) were analyzed using ActivityBase (IDBS Data Management Software). […] Equilibrium dissociation constant for inhibitor of ligand and receptor interaction (Ki) values were then calculated from the IC50 values using the Cheng-Prusoff equation: Ki=IC50/(1+([L]/Kd)), where [L] is the concentration of the radioligand used in the experiment and Kd is the affinity of the radioligand (determined in separate saturation experiments).

Chain of α-melanocyte-stimulating hormone receptor (hMC4R) (P32245 whole entry): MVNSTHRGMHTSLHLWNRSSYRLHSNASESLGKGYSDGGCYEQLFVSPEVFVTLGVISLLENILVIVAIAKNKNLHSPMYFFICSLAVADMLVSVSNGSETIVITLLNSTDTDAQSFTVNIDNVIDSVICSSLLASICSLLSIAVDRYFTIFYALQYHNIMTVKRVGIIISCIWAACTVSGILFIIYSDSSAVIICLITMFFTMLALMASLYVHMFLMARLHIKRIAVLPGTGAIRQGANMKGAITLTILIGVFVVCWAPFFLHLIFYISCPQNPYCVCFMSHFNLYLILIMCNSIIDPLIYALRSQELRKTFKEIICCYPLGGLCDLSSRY

Compared with `COc1cc([C@@H](C)C(=O)N2CC[C@@]3(CCc4cc(-c5cc(C)nc(C(C)C)n5)c(C)nc4N3)C2)c(F)cn1` [Example 183, (2R)-2-(5-fluoro-2-methoxypyridin-4-yl)-1-{(2S)-7-methyl-6-[6-methyl-2-(propan-2-yl)pyrimidin-4-yl]-3,4-dihydro-1H-spiro[1,8-naphthyridine-2,3′-pyrrolidin]-1′-yl}propan-1-one], `COc1cc([C@@H](C)C(=O)N2CC[C@@]3(CCc4cc(-c5nc(C(C)(C)C)cs5)c(C)nc4N3)C2)c(F)cn1` [Example 157, (2R)-1-[(2S)-6-(4-tert-butyl-1,3-thiazol-2-yl)-7-methyl-3,4-dihydro-1H-spiro[1,8-naphthyridine-2,3′-pyrrolidin]-1′-yl]-2-(5-fluoro-2-methoxypyridin-4-yl)propan-1-one] is 3.8-fold higher in Ki: 4 nM for the first, 15 nM for the second. The first binds more tightly here.

Compared with `COc1cc([C@@H](C)C(=O)N2CC[C@@]3(CCc4cc(-c5cccc(-c6nnc(C)o6)n5)c(C)nc4N3)C2)c(F)cn1` [Example 152, (2R)-2-(5-fluoro-2-methoxypyridin-4-yl)-1-{(2S)-7-methyl-6-[6-(5-methyl-1,3,4-oxadiazol-2-yl)pyridin-2-yl]-3,4-dihydro-1H-spiro[1,8-naphthyridine-2,3′-pyrrolidin]-1′-yl}propan-1-one], `COc1cc([C@@H](C)C(=O)N2CC[C@@]3(CCc4cc(-c5cccc(-c6nnc(C)o6)c5)c(C)nc4N3)C2)c(F)cn1` [Example 161, (2R)-2-(5-fluoro-2-methoxypyridin-4-yl)-1-{(2S)-7-methyl-6-[3-(5-methyl-1,3,4-oxadiazol-2-yl)phenyl]-3,4-dihydro-1H-spiro[1,8-naphthyridine-2,3′-pyrrolidin]-1′-yl}propan-1-one] is 19-fold higher in Ki: 2.5 nM for the first, 47 nM for the second. The first binds more tightly here.

First: Cc1nc2c(cc1-c1nc(C(F)F)n(C)n1)CC[C@@]1(CCN(C(=O)Cc3ccc(F)c(F)c3)C1)N2 [Example 121, 1-{(2S)-6-[5-(difluoromethyl)-1-methyl-1H-1,2,4-triazol-3-yl]-7-methyl-3,4-dihydro-1H-spiro[1,8-naphthyridine-2,3′-pyrrolidin]-1′-yl}-2-(3,4-difluorophenyl)ethan-1-one]
Second: COc1cc([C@@H](C)C(=O)N2CC[C@@]3(CCc4cc(-c5nc(OC)n(C)n5)c(C)nc4N3)C2)c(F)cn1 (single isomer, unassigned) [Example 112]
The Ki of the first is 1.6-fold lower: 0.49 nM for the first, 0.78 nM for the second. The first binds more tightly here.

Compared with `COc1cc([C@@H](C)C(=O)N2CC[C@@]3(CCc4cc(-c5cc6onc(C)c6cc5C)c(C)nc4N3)C2)c(F)cn1` [Example 160, (2R)-1-[(2S)-6-(3,5-dimethyl-1,2-benzoxazol-6-yl)-7-methyl-3,4-dihydro-1H-spiro[1,8-naphthyridine-2,3′-pyrrolidin]-1′-yl]-2-(5-fluoro-2-methoxypyridin-4-yl)propan-1-one], `COc1cc([C@@H](C)C(=O)N2CC[C@@]3(CCc4cc(-c5ccnnc5)c(C)nc4N3)C2)c(F)cn1` [Example 141, (2R)-2-(5-fluoro-2-methoxypyridin-4-yl)-1-[(2S)-7-methyl-6-(pyridazin-4-yl)-3,4-dihydro-1H-spiro[1,8-naphthyridine-2,3′-pyrrolidin]-1′-yl]propan-1-one] is 14-fold lower in Ki: 200 nM for the first, 14 nM for the second. The second binds more tightly here.

`COc1ncc(F)c([C@@H](C)C(=O)N2CC[C@@]3(CCc4cc(-c5nnn(C)n5)c(C)nc4N3)C2)n1` (single isomer, unassigned) [Example 134] and `COc1cc([C@@H](C)C(=O)N2CC[C@@]3(CCc4cc(-c5cnn(C)n5)c(C)nc4N3)C2)c(Cl)cn1` [Example 119, (2R)-2-(5-chloro-2-methoxypyridin-4-yl)-1-[(2S)-7-methyl-6-(2-methyl-2H-1,2,3-triazol-4-yl)-3,4-dihydro-1H-spiro[1,8-naphthyridine-2,3′-pyrrolidin]-1′-yl]propan-1-one] cannot be ordered by Ki: 220 nM for the first, over 17 nM for the second.

First: COc1cc(C(C)C(=O)N2CC[C@@]3(CCc4cc(-c5ncccn5)c(C)nc4N3)C2)cc(OC(F)F)n1 (single isomer, unassigned) [Example 192]
Second: COc1cc([C@@H](C)C(=O)N2CC[C@@]3(CCc4cc(-c5nccc(C(F)F)n5)c(C)nc4N3)C2)c(F)cn1 [Example 200, (2R)-1-{(2S)-6-[4-(difluoromethyl)pyrimidin-2-yl]-7-methyl-3,4-dihydro-1H-spiro[1,8-naphthyridine-2,3′-pyrrolidin]-1′-yl}-2-(5-fluoro-2-methoxypyridin-4-yl)propan-1-one]
The Ki of the first is 3-fold lower: 0.27 nM for the first, 0.82 nM for the second. The first binds more tightly here.

First: COc1cc([C@@H](C)C(=O)N2CC[C@@]3(CCc4cc(-c5ncc(F)cn5)c(C)nc4N3)C2)c(F)cn1 [Example 146, (2R)-2-(5-fluoro-2-methoxypyridin-4-yl)-1-[(2S)-6-(5-fluoropyrimidin-2-yl)-7-methyl-3,4-dihydro-1H-spiro[1,8-naphthyridine-2,3′-pyrrolidin]-1′-yl]propan-1-one]
Second: COc1cc([C@@H](C)C(=O)N2CC[C@@]3(CCc4cc(-c5ccncc5)c(C)nc4N3)C2)c(F)cn1 [Example 169, (2R)-2-(5-fluoro-2-methoxypyridin-4-yl)-1-[(2S)-7-methyl-6-(pyridin-4-yl)-3,4-dihydro-1H-spiro[1,8-naphthyridine-2,3′-pyrrolidin]-1′-yl]propan-1-one]
The Ki of the first is 6.3-fold lower: 1.2 nM for the first, 7.6 nM for the second.

Compared with `COc1cc([C@@H](C)C(=O)N2CC[C@@]3(CCc4cc(-c5nc(C(F)(F)F)cs5)c(C)nc4N3)C2)c(F)cn1` [Example 182, (2R)-2-(5-fluoro-2-methoxypyridin-4-yl)-1-{(2S)-7-methyl-6-[4-(trifluoromethyl)-1,3-thiazol-2-yl]-3,4-dihydro-1H-spiro[1,8-naphthyridine-2,3′-pyrrolidin]-1′-yl}propan-1-one], `COc1cc([C@@H](C)C(=O)N2CC[C@@]3(CCc4cc(-c5nc6n(n5)CCC6(F)F)c(C)nc4N3)C2)c(F)cn1` [Example 147, (2R)-1-[(2S)-6-(7,7-difluoro-6,7-dihydro-5H-pyrrolo[12-b][1,2,4]triazol-2-yl)-7-methyl-3,4-dihydro-1H-spiro[1,8-naphthyridine-2,3′-pyrrolidin]-1′-yl]-2-(5-fluoro-2-methoxypyridin-4-yl)propan-1-one] is 19-fold lower in Ki: 12 nM for the first, 0.62 nM for the second. The second binds more tightly here.

`COc1cc(C(C)(F)C(=O)N2CC[C@@]3(CCc4cc(-c5ncccn5)c(C)nc4N3)C2)c(F)cn1` (single isomer, unassigned) [Example 148] was tested, and the Ki was 12 nM.

Same assay, conditions: geometric mean, read-out: Ki (nM) geometric mean

Going from `Cc1nc2c(cc1-c1ncccn1)CC[C@@]1(CCN(C(=O)[C@H](C)c3cc(N(C)C)ncc3F)C1)N2` (single isomer, unassigned) [Example 81] to `COc1cc([C@@H](C)C(=O)N2CC[C@@]3(CCc4cc(-c5ncccn5)c(C)nc4N3)C2)c(F)cn1` [Example 14, (2R)-2-(5-Fluoro-2-methoxypyridin-4-yl)-1-[(2S)-7-methyl-6-(pyrimidin-2-yl)-3,4-dihydro-1H-spiro[1,8-naphthyridine-2,3′-pyrrolidin]-1′-yl]propan-1-one], the Ki falls from 6.6 nM to 0.46 nM (14-fold).

`Cc1nc2c(cc1-c1ncccn1)CC[C@@]1(CCN(C(=O)Cc3cc(F)c(F)c(F)c3)C1)N2` [Example 54, 1-[(2S)-7-methyl-6-(pyrimidin-2-yl)-3,4-dihydro-1H-spiro[1,8-naphthyridine-2,3′-pyrrolidin]-1′-yl]-2-(3,4,5-trifluorophenyl)ethan-1-one] and `Cc1nc2c(cc1-c1ncccn1)CC[C@@]1(CCN(C(=O)[C@H](C)c3ccc(F)c(F)c3)C1)N2` (single isomer, unassigned) [Example 50] are within 1.5-fold of each other in Ki: 0.93 nM for the first, 0.81 nM for the second.

Going from `COc1cc([C@@H](C)C(=O)N2CC[C@@]3(CCc4cc(-c5cn(C(F)(F)F)c(C)n5)c(C)nc4N3)C2)c(F)cn1` [Example 27, (2R)-2-(5-fluoro-2-methoxypyridin-4-yl)-1-{(2S)-7-methyl-6-[2-methyl-1-(trifluoromethyl)-1H-imidazol-4-yl]-3,4-dihydro-1H-spiro[1,8-naphthyridine-2,3′-pyrrolidin]-1′-yl}propan-1-one] to `COc1cc([C@@H](C)C(=O)N2CC[C@@]3(CCc4cc(-c5cnc(C6CC6)cn5)c(C)nc4N3)C2)c(F)cn1` [Example 70, (2R)-1-[(2S)-6-(5-cyclopropylpyrazin-2-yl)-7-methyl-3,4-dihydro-1H-spiro[1,8-naphthyridine-2,3′-pyrrolidin]-1′-yl]-2-(5-fluoro-2-methoxypyridin-4-yl)propan-1-one], the Ki rises from 2 nM to 40 nM (20-fold). The first binds more tightly here.

Going from `COc1cc(OC)cc([C@@H](C)C(=O)N2CCC3(CCc4cc(-c5cnn(C)c5)c(C)nc4N3)C2)c1` (single isomer, unassigned) [Example 90] to `COc1cc([C@@H](C)C(=O)N2CC[C@@]3(CCc4cc(-c5ncccn5)c(C)nc4N3)C2)cc(OC)n1` (single isomer, unassigned) [Example 83], the Ki rises from 0.044 nM to 0.67 nM (15-fold). The first binds more tightly here.

— patent US20250084084A1, “Crystalline form of (2R)-2-(5-fluoro-2-methoxypyridin-4-yl)-1-[(2S)-7-methyl-6-(pyrimidin-2-yl)-3,4-dihydro-1H-spiro[1,8-naphthyridine-2,3-pyrrolidin]-1-yl]propan-1-one” (Pfizer Inc., priority 2020, published 2025)
